Patent US11440898B2, “Isoquinoline compounds, methods for their preparation, and therapeutic uses thereof in conditions associated with the alteration of the activity of beta galactosidase” (Minoryx Therapeutics S.L., priority 2016, dated 2022)

Target: T1, mutated beta-galactosidase (p.R60H canine GLB1) in GM11473 fibroblasts (Canis lupus familiaris, UniProt Q9TRY9, R60H)
T1 construct: host or cells: GM11473 canine GM1 gangliosidosis fibroblasts
T1 sequence (Q9TRY9 30-668 R60H): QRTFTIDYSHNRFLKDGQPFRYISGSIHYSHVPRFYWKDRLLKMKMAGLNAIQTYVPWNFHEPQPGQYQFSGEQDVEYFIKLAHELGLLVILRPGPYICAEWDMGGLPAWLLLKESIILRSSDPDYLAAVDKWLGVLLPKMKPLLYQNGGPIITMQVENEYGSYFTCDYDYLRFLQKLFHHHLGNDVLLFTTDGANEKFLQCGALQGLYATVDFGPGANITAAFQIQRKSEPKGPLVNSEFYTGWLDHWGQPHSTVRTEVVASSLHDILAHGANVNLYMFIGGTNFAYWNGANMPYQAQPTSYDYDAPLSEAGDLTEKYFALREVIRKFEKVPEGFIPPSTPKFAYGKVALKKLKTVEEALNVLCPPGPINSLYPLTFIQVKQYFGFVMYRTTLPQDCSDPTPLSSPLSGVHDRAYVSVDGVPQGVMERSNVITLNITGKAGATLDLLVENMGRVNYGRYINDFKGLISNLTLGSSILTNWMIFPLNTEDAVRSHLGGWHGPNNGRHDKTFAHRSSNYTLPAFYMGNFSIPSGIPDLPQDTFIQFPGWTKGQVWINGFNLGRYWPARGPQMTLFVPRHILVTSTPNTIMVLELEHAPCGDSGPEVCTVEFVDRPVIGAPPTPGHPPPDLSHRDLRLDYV
Test: Enhancement of β-galactosidase activity measured in GM1 fibroblasts (GM11473), 4-MU-β-D-galactopyranoside substrate
Assay type: cell-based
Set-up: key: Increase in comparison with non-treated of >2.5 fold is shown as A; Increase in comparison with non-treated of >1.7-2.5 fold is shown as B; Increase in comparison with non-treated of 1.2-1.7 fold is shown as C; D means that no increase compared with non-treated cells was detected in this method
Settings: increase in β-galactosidase enzyme activity vs non-treated cells, concentrations between 6 and 50 μM, 4 days incubation
Method: The capacity of the Compounds of the Disclosure to enhance mutated beta-galactosidase activity levels in GM1 fibroblasts was assayed as follows.
Fibroblasts homozygous for a GM1 gangliosidosis missense mutation (GM11473) (canine fibroblasts homozygous for the GM1 gangliosidosis missense mutation p.R60H equivalent to human p.R59H mutation) were purchased from Coriell Institute for Medical Research (Camden, N.J., USA).
Fibroblasts were seeded at 4×10^4 cells per well in 12-well cell culture plates in Dulbecco's Modified Eagle's Media (DMEM) supplemented with 10% of fetal bovine serum (FBS), 1% penicillin/streptomycin (P/S) (Thermo Fisher Scientific, Waltham, Mass., USA) and incubated at 37° C., 5% CO2 overnight for cell attachment. Subsequently, cells were incubated in the absence or presence of the compounds at the desired concentration for 4 days. After incubation, cells were washed twice with phosphate-buffered saline (“PBS”) and detached using Trypsin-EDTA solution (Sigma Aldrich, St. Louis, Mo., USA) to prepare cell pellets. The pellets were stored at −80° C. until activity assays were performed.
β-Galactosidase activity in cell lysates was measured by using 4-Methylumbelliferyl-β-D-galactopyranoside substrate (Sigma Aldrich, St. Louis, Mo., USA). Briefly, lysates were resuspended in 200 μL of 0.9% NaCl containing 0.01% triton X-100 lysis buffer to promote membrane disruption. The cell suspension was sonicated and centrifuged to remove insoluble materials. Then, lysates were mixed with 4-MU-β-D-galactopyranoside in 100 mM citrate buffer (pH=4) and 100 mM NaCl for 60 min at 37° C. The reaction was terminated by adding 100 mM glycine-NaOH buffer (pH=10.7). The liberated 4-MU was measured on a GloMax Discover plate reader (Promega, Madison, Wis., USA) with excitation at 340 nm and emission at 460 nm. Protein quantification was determined using Pierce BCA Protein Assay Kit (Thermo Fisher Scientific, Waltham, Mass., USA). Measurements were interpolated in a 4-MU standard curve and normalized by protein quantity. Enzyme activities were expressed in treated cells as X-fold increase in comparison with non-treated cells (X=1 represents no enhancement).
The capacity of the Compounds of the Disclosure to produce an increase in β-galactosidase enzyme activity in canine GM1 fibroblasts bearing p.R60H canine GLB1 mutation at concentrations between 6 and 50 μM is denoted as follows: • Increase in comparison with non-treated of >2.5 fold is shown as A. • Increase in comparison with non-treated of >1.7-2.5 fold is shown as B. • Increase in comparison with non-treated of 1.2-1.7 fold is shown as C. • D means that no increase compared with non-treated cells was detected in this method. • ND means “not determined.”

Structure (SMILES)	Activity in GM11473 fibroblasts
COc1ccc2ccnc(Nc3ccc(C(=O)NC4CCc5ccccc5C4)nc3)c2c1 (stereo not shown) [Example 45, 5-((7-Methoxyisoquinolin-1-yl)amino)-N-(1,2,3,4-tetrahydronaphthalen-2-yl)picolinamide]	C (Increase in comparison with non-treated of 1.2-1.7 fold is shown as C)
O=C(NCC(c1cccnc1)N1CCCC1)c1ccc(Nc2nccc3ccc(Cl)cc23)cc1 (stereo not shown) [Example 6, 4-((7-Chloroisoquinolin-1-yl)amino)-N-(2-(pyridin-3-yl)-2-(pyrrolidin-1-yl)ethyl)benzamide]	D
O=C(NCc1ccc2c(c1)OCCO2)c1ccc(Nc2nccc3ccc(Cl)cc23)cc1 [Example 5, 4-((7-Chloroisoquinolin-1-yl)amino)-N-((2,3-dihydrobenzo[b][1,4]dioxin-6-yl)methyl)benzamide]	B (Increase in comparison with non-treated of >1.7-2.5 fold is shown as B)
COc1ccc(CNC(=O)c2ccc(Nc3nccc4ccc(Cl)cc34)cn2)cc1OC [Example 32, 5-((7-Chloroisoquinolin-1-yl)amino)-N-(3,4-dimethoxybenzyl)picolinamide]	C (Increase in comparison with non-treated of 1.2-1.7 fold is shown as C)
O=C(NCc1ccccc1)c1cc(Nc2nccc3ccc(Cl)cc23)ccn1 [Example 9, N-benzyl-4-((7-chloroisoquinolin-1-yl)amino)picolinamide]	B (Increase in comparison with non-treated of >1.7-2.5 fold is shown as B)
O=C(NCc1ccc2c(c1)CCO2)c1ccc(Nc2nccc3ccc(Cl)cc23)cn1 [Example 36, 5-((7-Chloroisoquinolin-1-yl)amino)-N-((2,3-dihydrobenzofuran-5-yl)methyl)picolinamide]	C (Increase in comparison with non-treated of 1.2-1.7 fold is shown as C)
O=C(NC1CCc2ccccc2C1)c1ccc(Nc2nccc3ccc(Cl)cc23)cn1 (stereo not shown) [Example 34, 5-((7-Chloroisoquinolin-1-yl)amino)-N-(1,2,3,4-tetrahydronaphthalen-2-yl)picolinamide]	A (Increase in comparison with non-treated of >2.5 fold is shown as A)
O=S(=O)(NCc1ccc2nsnc2c1)c1ccc(Nc2nccc3ccc(Cl)cc23)cc1 [Example 76, N-(benzo[c][1,2,5]thiadiazol-5-ylmethyl)-4-((7-chloroisoquinolin-1-yl)amino)benzenesulfonamide]	C (Increase in comparison with non-treated of 1.2-1.7 fold is shown as C)
O=S(=O)(NCc1ccc2nsnc2c1)c1cccc(Nc2nccc3ccc(Cl)cc23)c1 [Example 74, N-(benzo[c][1,2,5]thiadiazol-5-ylmethyl)-3-((7-chloroisoquinolin-1-yl)amino)benzenesulfonamide]	D
O=C(NC1CCc2ccccc2C1)c1ccc(Nc2nccc3ccc(Cl)cc23)nc1 (stereo not shown) [Example 60, 6-((7-Chloroisoquinolin-1-yl)amino)-N-(1,2,3,4-tetrahydronaphthalen-2-yl)nicotinamide]	C (Increase in comparison with non-treated of 1.2-1.7 fold is shown as C)
O=C(NCc1ccc2c(c1)OCCO2)c1ccc(Nc2nccc3ccc(Cl)cc23)nc1 [Example 54, 6-((7-Chloroisoquinolin-1-yl)amino)-N-((2,3-dihydrobenzo[b][1,4]dioxin-6-yl)methyl)nicotinamide]	C (Increase in comparison with non-treated of 1.2-1.7 fold is shown as C)
O=C(NCc1ccccc1)c1ccc(Nc2nccc3ccc(Cl)cc23)nc1 [Example 55, N-benzyl-6-((7-chloroisoquinolin-1-yl)amino)nicotinamide]	C (Increase in comparison with non-treated of 1.2-1.7 fold is shown as C)
COc1ccc2ccnc(Nc3ccnc(C(=O)NCc4ccc5c(c4)OCCO5)c3)c2c1 [Example 25, N-((2,3-dihydrobenzo[b][1,4]dioxin-6-yl)methyl)-4-((7-methoxyisoquinolin-1-yl)amino)picolinamide]	C (Increase in comparison with non-treated of 1.2-1.7 fold is shown as C)
O=C(NCC1CCc2ccccc2C1)c1cc(Nc2nccc3ccc(Cl)cc23)ccn1 (stereo not shown) [Example 20, 4-((7-Chloroisoquinolin-1-yl)amino)-N-((1,2,3,4-tetrahydronaphthalen-2-yl)methyl)picolinamide]	B (Increase in comparison with non-treated of >1.7-2.5 fold is shown as B)
O=S(=O)(NCC(c1ccccn1)N1CCOCC1)c1cccc(Nc2nccc3ccc(Cl)cc23)c1 (stereo not shown) [Example 66, 3-((7-Chloroisoquinolin-1-yl)amino)-N-(2-morpholino-2-(pyridin-2-yl)ethyl)benzenesulfonamide]	C (Increase in comparison with non-treated of 1.2-1.7 fold is shown as C)
O=S(=O)(NCc1ccc2c(c1)OCCO2)c1cccc(Nc2nccc3ccc(Cl)cc23)c1 [Example 69, 3-((7-Chloroisoquinolin-1-yl)amino)-N-((2,3-dihydrobenzo[b][1,4]dioxin-6-yl)methyl)benzenesulfonamide]	D
O=C(NCc1ccc2c(c1)OCCO2)c1ccc(Nc2nccc3ccc(Cl)cc23)cn1 [Example 28, 5-((7-Chloroisoquinolin-1-yl)amino)-N-((2,3-dihydrobenzo[b][1,4]dioxin-6-yl)methyl)picolinamide]	B (Increase in comparison with non-treated of >1.7-2.5 fold is shown as B)
O=C(NCc1ccc2c(c1)OCCCO2)c1cc(Nc2nccc3ccc(Cl)cc23)ccn1 [Example 15, 4-((7-Chloroisoquinolin-1-yl)amino)-N-((3,4-dihydro-2H-benzo[b][1,4]dioxepin-7-yl)methyl)picolinamide]	D
O=C(NCC(c1cccnc1)N1CCCC1)c1ccc(Nc2nccc3ccc(Cl)cc23)nc1 (stereo not shown) [Example 53, 6-((7-Chloroisoquinolin-1-yl)amino)-N-(2-(pyridin-3-yl)-2-(pyrrolidin-1-yl)ethyl)nicotinamide]	C (Increase in comparison with non-treated of 1.2-1.7 fold is shown as C)
Cn1nnc2cc(NC(=O)c3cccc(Nc4nccc5ccc(Cl)cc45)c3)ccc21 [Example 1, 3-((7-Chloroisoquinolin-1-yl)amino)-N-(1-methyl-1H-benzo[d][1,2,3]triazol-5-yl)benzamide]	C (Increase in comparison with non-treated of 1.2-1.7 fold is shown as C)
O=C(NCc1ccc2c(c1)CCCO2)c1ccc(Nc2nccc3ccc(Cl)cc23)cn1 [Example 39, 5-((7-Chloroisoquinolin-1-yl)amino)-N-(chroman-6-ylmethyl)picolinamide]	B (Increase in comparison with non-treated of >1.7-2.5 fold is shown as B)
O=C(NCc1ccc2nsnc2c1)c1ccc(Nc2nccc3ccc(Cl)cc23)nc1 [Example 59, N-(benzo[c][1,2,5]thiadiazol-5-ylmethyl)-6-((7-chloroisoquinolin-1-yl)amino)nicotinamide]	C (Increase in comparison with non-treated of 1.2-1.7 fold is shown as C)
